Data on ten molecules can be found in PubChem BioAssay (NCI).

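Where inhibition never reached the appropriate level, the endpoint shown equals the highest concentration tested. Otherwise, values were interpolated linearly from a five-concentration, 48-hour dose response in 96-well plates. The concentration for 50% growth inhibition is given as GI50. The concentration for full growth arrest is given as TGI.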

Some test systems named below: NCI-H460 lung; SF-268 CNS; HOP-62 NSCLC; HL-60(TB) leukemia; OVCAR-8 ovarian; COLO 205 colon; LOX IMVI melanoma; SK-MEL-28 melanoma; IGROV1 ovarian; K-562 leukemia.
Holding throughout (experiment): growth of human tumour cells (NCI), 48 h

On to `CCOc1ccc(OCC(=O)O)c2c1CCCC2=O`, for which the TGI in the assay on NCI-H460 lung, with SF-268 CNS, with HOP-62 NSCLC, in the assay on HL-60(TB) leukemia, in the assay with OVCAR-8 ovarian and in the assay with COLO 205 colon was > 100 µM throughout. Further, the TGI in the assay with LOX IMVI melanoma, in the assay with SK-MEL-28 melanoma and in the assay on IGROV1 ovarian was > 100 µM each time.

`N#CC(I)CS(=O)(=O)c1ccccc1` (stereo not given): the GI50 was 21.6 µM in the assay with NCI-H460 lung; 18.8 µM in the assay on SF-268 CNS; 19.3 µM with HOP-62 NSCLC; 17.4 µM in the assay on OVCAR-8 ovarian; 2.03 µM in the assay on COLO 205 colon; 14.8 µM in the assay on LOX IMVI melanoma. Besides, the GI50 with SK-MEL-28 melanoma is 16.6 µM; in the assay with IGROV1 ovarian, 16.2 µM. Also, the TGI in the assay on NCI-H460 lung turned out to be 42.4 µM; in the assay on SF-268 CNS, 35.2 µM; in the assay with HOP-62 NSCLC, 38.4 µM; in the assay with OVCAR-8 ovarian it was 32.2 µM; in the assay on COLO 205 colon, 3.86 µM; in the assay with LOX IMVI melanoma it was 28.3 µM. Besides, the TGI in the assay on SK-MEL-28 melanoma was determined as 30.7 µM; in the assay on IGROV1 ovarian, 39.8 µM.

Regarding `Cc1nc2sccn2c1-c1nc2sccn2c1/C=C1/C(=O)Nc2ccccc21`, the GI50 in the assay with NCI-H460 lung was 3.09 µM; with SF-268 CNS, 6.18 µM; in the assay on HOP-62 NSCLC, 3.61 µM; in the assay on OVCAR-8 ovarian it was 11.4 µM; with K-562 leukemia it was > 100 µM; in the assay with COLO 205 colon, 2.63 µM. Further, the GI50 with LOX IMVI melanoma is 3.01 µM; with SK-MEL-28 melanoma it was 5.42 µM; in the assay on IGROV1 ovarian, 1.92 µM. The TGI was 13.5 µM in the assay with NCI-H460 lung; 33.1 µM with SF-268 CNS; > 100 µM in the assay with HOP-62 NSCLC; > 100 µM with OVCAR-8 ovarian; > 100 µM in the assay on K-562 leukemia; 10.5 µM with COLO 205 colon. The TGI with LOX IMVI melanoma is > 100 µM; with SK-MEL-28 melanoma it was 46.2 µM; with IGROV1 ovarian, 7.77 µM.

As to `COc1cc(OC)c(OC)cc1/C=N/NC(=O)N/N=C/c1cc(OC)c(OC)cc1OC`, the TGI in the assay on NCI-H460 lung, with SF-268 CNS, in the assay with OVCAR-8 ovarian, with K-562 leukemia, with COLO 205 colon and in the assay with LOX IMVI melanoma was > 100 µM in each case. Further, the TGI in the assay on SK-MEL-28 melanoma and with IGROV1 ovarian was > 100 µM each time.

For `CCOc1ccc(NC(=O)CC2SC(=Nc3ccc(C)cc3C)NC2=O)cc1` (stereo not given), the TGI with NCI-H460 lung, in the assay with SF-268 CNS, in the assay on HL-60(TB) leukemia, in the assay on OVCAR-8 ovarian, with K-562 leukemia and in the assay on LOX IMVI melanoma was > 100 µM throughout. Besides, the TGI in the assay on SK-MEL-28 melanoma and in the assay on IGROV1 ovarian was > 100 µM throughout.

Turning to `Cc1nc2c(Br)cc(Br)cc2c(=O)n1-c1nnc(-c2cccc(Cl)c2Cl)c(N)n1`, the GI50 with NCI-H460 lung was 20.3 µM; in the assay on SF-268 CNS, 45.5 µM; in the assay on HOP-62 NSCLC, 7.08 µM; in the assay with OVCAR-8 ovarian it was 18.7 µM; in the assay with K-562 leukemia, 3.4 µM; with COLO 205 colon it was 32.9 µM. For the same molecule, the GI50 was 12.9 µM in the assay on LOX IMVI melanoma, 65.4 µM with SK-MEL-28 melanoma and 15 µM in the assay with IGROV1 ovarian. The TGI was > 100 µM with NCI-H460 lung; > 100 µM in the assay with SF-268 CNS; 28.2 µM in the assay on HOP-62 NSCLC; 60.7 µM with OVCAR-8 ovarian; 22.6 µM in the assay on K-562 leukemia; > 100 µM in the assay on COLO 205 colon. In addition, the TGI in the assay with LOX IMVI melanoma was 39.9 µM; with SK-MEL-28 melanoma it was > 100 µM; in the assay on IGROV1 ovarian it was 55.1 µM.

Turning to `COCOCCC#CCO`, the TGI with NCI-H460 lung, in the assay on SF-268 CNS, in the assay on HL-60(TB) leukemia, in the assay on OVCAR-8 ovarian, in the assay on K-562 leukemia and in the assay with LOX IMVI melanoma was > 100 µM throughout. Further, the TGI in the assay on SK-MEL-28 melanoma and with IGROV1 ovarian was > 100 µM throughout.

For the molecule `CN1Nc2ccccc2CC1=O`, the TGI in the assay with NCI-H460 lung, in the assay with SF-268 CNS, with HOP-62 NSCLC, in the assay with OVCAR-8 ovarian, in the assay on K-562 leukemia and in the assay with COLO 205 colon was > 100 µM each time. Also, the TGI with LOX IMVI melanoma, in the assay with SK-MEL-28 melanoma and with IGROV1 ovarian was > 100 µM throughout.

For `CCOC(=O)Nc1c(C)nc2ccccn12`, the GI50 with NCI-H460 lung, in the assay on SF-268 CNS, in the assay with HOP-62 NSCLC, in the assay with OVCAR-8 ovarian, with K-562 leukemia and with COLO 205 colon was > 100 µM throughout. Moreover, the GI50 with LOX IMVI melanoma, in the assay on SK-MEL-28 melanoma and with IGROV1 ovarian was > 100 µM in each case. Moreover, the TGI with NCI-H460 lung, in the assay with SF-268 CNS, in the assay with HOP-62 NSCLC, in the assay with OVCAR-8 ovarian, in the assay with K-562 leukemia and with COLO 205 colon was > 100 µM throughout. In addition, the TGI in the assay on LOX IMVI melanoma, with SK-MEL-28 melanoma and in the assay with IGROV1 ovarian was > 100 µM each time.

As to `C[C@H](CCOc1cccc(CC(=O)O)c1)N(Cc1cccc(C(F)(F)F)c1Cl)CC(c1ccccc1)c1ccccc1`, the GI50 in the assay with NCI-H460 lung was 3.9 µM; in the assay on SF-268 CNS, 5.28 µM; with HOP-62 NSCLC it was 6.26 µM; in the assay on HL-60(TB) leukemia it was 5.58 µM; with OVCAR-8 ovarian it was 5.83 µM; with K-562 leukemia, 4.9 µM. Further, the results for the GI50 in the assay on LOX IMVI melanoma, in the assay with SK-MEL-28 melanoma and with IGROV1 ovarian were 5.13 µM, 7.3 µM and 5.77 µM, respectively. Also, the TGI in the assay on NCI-H460 lung is 13.6 µM; in the assay with SF-268 CNS, 20.3 µM; with HOP-62 NSCLC, 26.4 µM; with HL-60(TB) leukemia, 24.6 µM; in the assay on OVCAR-8 ovarian it was 25.6 µM; in the assay on K-562 leukemia, 52.9 µM. Besides, the TGI in the assay with LOX IMVI melanoma came out at 18.5 µM; with SK-MEL-28 melanoma, 20.1 µM; in the assay on IGROV1 ovarian it was 19.4 µM.
